Data from ChEMBL document CHEMBL1148093, “Biological effects of prenylated hydroquinones: structure-activity relationship studies in antimicrobial, brine shrimp, and fish lethality assays” (J Nat Prod, 1994).
In brackets after ≈: the same amount, converted by molar mass. Activity calls are given as the source filed them. No cut-off for these calls is given here.

Assays:
[1] = system: Escherichia coli; assay: Antimicrobial activity against Escherichia coli DSM 1103 after 18 hrs by twofold serial dilution method; assay type: functional, organism-based
[2] = system: Bacillus subtilis; assay: Antimicrobial activity against Bacillus subtilis DSM 347 after 18 hrs by twofold serial dilution method; assay type: functional
[3] = system: Candida albicans; assay: Antimicrobial activity against Candida albicans DSM 1665 after 18 hrs by twofold serial dilution method; assay type: functional
[4] = system: Micrococcus luteus; assay: Antimicrobial activity against Micrococcus luteus DSM 348 after 18 hrs by twofold serial dilution method; assay type: functional
[5] = system: Pseudomonas aeruginosa; assay: Antimicrobial activity against Pseudomonas aeruginosa DSM 1117 after 18 hrs by twofold serial dilution method; assay type: functional, organism-based
[6] = system: Gambusia affinis; assay: Toxicity against Gambusia affinis; settings: in vivo
[7] = system: Artemia salina; assay: Toxicity against Artemia salina after 24 hrs; settings: in vivo

O=C1C=CC(=O)C=C1 [BENZOQUINONE] was tested, and the Activity [1] was “inactive”, the MIC ([2]; DSM 347, 18 h) was greater than 50 µg/mL and the MIC ([3]; DSM 1665, 18 h) was 25 µg/mL (≈ 231 µM). For the same molecule, the MIC ([4]; DSM 348, 18 h) was greater than 50 µg/mL and the Activity [5] was “inactive”.

CC(C)CCCC(C)CCCC(C)CCCC(C)CCCC(C)CCCC(C)CCCC(C)CCc1cc(O)ccc1O (configuration not stated) was tested, and the Activity [1] was “inactive”, the MIC [2] was “inactive” and the MIC [3] was “inactive”. For the same molecule, the LC50 [6] was greater than 100 ppm, the MIC [4] was “inactive” and the LC50 [7] was greater than 10 ppm. The Activity [5] was “inactive”.

CC(C)CCCC(C)CCCC(C)CCc1cc(O)ccc1O (configuration not stated) was tested, and the Activity [1] was “inactive”, the MIC ([2]; DSM 347, 18 h) was greater than 50 µg/mL and the MIC [3] was “inactive”. It also gave an LC50 [6] of 21.3 ppm, an MIC ([4]; DSM 348, 18 h) greater than 50 µg/mL and an LC50 [7] of 0.02 ppm. The Activity [5] was “inactive”.

With CC(C)=CCC/C(C)=C/CC/C(C)=C/CC/C(C)=C/CC/C(C)=C/CC/C(C)=C/CC1=CC(=O)C=CC1=O the Activity [1] was “inactive”, the MIC [2] was “inactive” and the MIC [3] was “inactive”. The MIC [4] was “inactive” and the Activity [5] was “inactive”.

In the case of CC(C)CCCC(C)CCCC(C)CCCC(C)CCCC(C)CCCC(C)CCc1cc(O)ccc1O (configuration not stated), the Activity [1] was “inactive”, the MIC [2] was “inactive” and the MIC [3] was “inactive”. For the same molecule, the LC50 [6] was greater than 100 ppm, the MIC [4] was “inactive” and the LC50 [7] was greater than 10 ppm. For the same molecule, the Activity [5] was “inactive”.

With CC(C)=CCC/C(C)=C/CC/C(C)=C/CC/C(C)=C/CC/C(C)=C/CC/C(C)=C/CC/C(C)=C/CC/C(C)=C/CC1=CC(=O)C=CC1=O the Activity [1] was “inactive”, the MIC [2] was “inactive” and the MIC [3] was “inactive”. The LC50 [6] was greater than 100 ppm, the MIC [4] was “inactive” and the LC50 [7] was 1.45 ppm. For the same molecule, the Activity [5] was “inactive”.

With CC(C)=CCC/C(C)=C/CC/C(C)=C/CC/C(C)=C/CC/C(C)=C/CC/C(C)=C/CC/C(C)=C/CC1=CC(=O)C=CC1=O the Activity [1] was “inactive”, the MIC [2] was “inactive” and the MIC [3] was “inactive”. For the same molecule, the LC50 [6] was greater than 100 ppm, the MIC [4] was “inactive” and the LC50 [7] was 1.26 ppm. The Activity [5] was “inactive”.

In the case of CC(C)CCCC(C)CCCC(C)CCCC(C)CCCC(C)CCCC(C)CCCC(C)CCCC(C)CCc1cc(O)ccc1O (configuration not stated), the Activity [1] was “inactive”, the MIC [2] was “inactive” and the MIC [3] was “inactive”. The LC50 [6] was greater than 100 ppm, the MIC [4] was “inactive” and the LC50 [7] was greater than 10 ppm. For the same molecule, the Activity [5] was “inactive”.

For CC(C)=CCc1cc(O)ccc1O [PRENYLHYDROQUINONE], the Activity [1] was “inactive”, the MIC ([2]; DSM 347, 18 h) was greater than 50 µg/mL and the MIC ([3]; DSM 1665, 18 h) was greater than 50 µg/mL. The LC50 [6] was 22.2 ppm, the MIC ([4]; DSM 348, 18 h) was 25 µg/mL (≈ 140 µM) and the LC50 [7] was 0.54 ppm. The Activity [5] was “inactive”.

With CC(C)=CCC1=CC(=O)C=CC1=O the Activity [1] was “inactive”, the MIC ([2]; DSM 347, 18 h) was 25 µg/mL (≈ 142 µM) and the MIC ([3]; DSM 1665, 18 h) was greater than 50 µg/mL. It also gave an LC50 [6] of 1.4 ppm, an MIC ([4]; DSM 348, 18 h) of 25 µg/mL (≈ 142 µM) and an LC50 [7] of 0.19 ppm. For the same molecule, the Activity [5] was “inactive”.

Cc1cc(O)ccc1O [METHYLHYDROQUINONE] was tested, and the Activity [1] was “inactive”, the MIC ([2]; DSM 347, 18 h) was 25 µg/mL (≈ 201 µM) and the MIC ([3]; DSM 1665, 18 h) was greater than 50 µg/mL. It also gave an LC50 [6] of 38.5 ppm, an MIC ([4]; DSM 348, 18 h) greater than 50 µg/mL and an LC50 [7] greater than 10 ppm. For the same molecule, the Activity [5] was “inactive”.

For CC(C)=CCC/C(C)=C/Cc1cc(O)ccc1O [GEROQUINOL], the Activity [1] was “inactive”, the MIC ([2]; DSM 347, 18 h) was 6.25 µg/mL (≈ 25.4 µM) and the MIC ([3]; DSM 1665, 18 h) was 25 µg/mL (≈ 101 µM). It also gave an LC50 [6] of 4.6 ppm, an MIC ([4]; DSM 348, 18 h) of 12.5 µg/mL (≈ 50.7 µM) and an LC50 [7] of 0.01 ppm. For the same molecule, the Activity [5] was “inactive”.

CC(C)CCCC(C)CCCC(C)CCCC(C)CCc1cc(O)ccc1O (configuration not stated) was tested, and the Activity [1] was “inactive”, the MIC [2] was “inactive” and the MIC [3] was “inactive”. For the same molecule, the LC50 [6] was 43.6 ppm, the MIC [4] was “inactive” and the LC50 [7] was 0.02 ppm. The Activity [5] was “inactive”.
